{"source": "paper PMC7851572", "about": "“A Pichia biosensor for high‐throughput analyses of compounds that can influence mosquito behavior” (MicrobiologyOpen, 2020)", "target": "T1, olfactory receptor co-receptor (Orco) (Anopheles gambiae, UniProt Q7QCC7)", "T1 construct": "codon-optimized Orco cDNA in pPICZA (C-terminal c-myc tag detected), expressed in Pichia pastoris GS115", "T1 sequence (Q7QCC7 1-478)": "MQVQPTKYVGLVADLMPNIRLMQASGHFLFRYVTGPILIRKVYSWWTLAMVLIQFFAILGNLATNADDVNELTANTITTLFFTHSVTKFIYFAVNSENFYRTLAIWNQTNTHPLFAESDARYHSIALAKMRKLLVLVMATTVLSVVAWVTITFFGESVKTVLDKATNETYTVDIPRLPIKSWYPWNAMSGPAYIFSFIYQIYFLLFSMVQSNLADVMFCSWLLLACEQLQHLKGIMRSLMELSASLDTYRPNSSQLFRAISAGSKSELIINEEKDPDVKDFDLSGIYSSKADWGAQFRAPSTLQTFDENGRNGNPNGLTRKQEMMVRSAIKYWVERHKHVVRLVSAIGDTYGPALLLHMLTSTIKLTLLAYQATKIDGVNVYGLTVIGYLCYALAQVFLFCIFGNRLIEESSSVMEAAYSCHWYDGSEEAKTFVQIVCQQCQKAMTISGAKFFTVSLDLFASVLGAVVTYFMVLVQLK", "assay": "fluo-4-AM calcium influx assay in Pichia pastoris expressing Orco, compared with GS115 control cells ([…] extracellular Ca2+)", "assay_type": "cell-based", "data": [{"smiles": "CCc1ccc(NC(=O)CSc2nnc(-c3cccnc3)n2CC)cc1", "note": "[VUAA1, 2‐(4‐ethyl‐5‐(pyridin‐3‐yl)‐4H‐1,2,4‐triazol‐3‐ylthio)‐N‐(4‐ethylphenyl)acetamide]", "values": [{"measurement": "EC50", "result": 410, "unit": "µM"}]}]}
